In ChEMBL document CHEMBL1144599, “In vitro antimalarial activity of hyperforin, a prenylated acylphloroglucinol. A structure-activity study” (Bioorg Med Chem Lett, 2007):
Where a name gives a salt, the structure may show the parent alone.

What was measured:
Plasmodium falciparum = experiment: Antiplasmodial activity after 48 hrs against Plasmodium falciparum K1 in human erythrocytes; format: functional, organism-based
L6 = experiment: Cytotoxicity against rat L6 cells after 72 hrs; format: cell-based
[1] = Plasmodium falciparum, K1, 48 h

Structure (SMILES)	IC50 (Plasmodium falciparum; [1]) [µM]	IC50 (L6; Rattus norvegicus, L6, 72 h) [µM]	IC50 (Plasmodium falciparum) [µM]	IC50 (L6; l6) [µM]
CC(=O)C1=C(O)C=C2Oc3c(C(C)=O)c(O)c(C)c(O)c3C2(C)C1=O (stereo not given)	16.1	–	–	–
CC(C)CCC[C@]1(C)[C@@H](CCC(C)C)C[C@@]2(CCC(C)C)C(=O)[C@]1(C(=O)C(C)C)C(=O)C(CCC(C)C)=C2O [OCTAHYDROHYPERFORIN DICYCLOHEXYLAMMONIUM SALT]	–	–	1.4	3.12
CC(C)=CCC[C@]1(C)[C@@H](CC=C(C)C)C[C@]2(CC=C(C)C)C(=O)C(Cl)(CC=C(C)C)C(=O)[C@@]1(C(=O)C(C)C)C2=O (stereo not given in full)	6.7	–	–	–
CC(C)=CCC[C@]1(C)[C@@H](CC=C(C)C)C[C@@]2(CC=C(C)C)C(=O)[C@]1(C(=O)C(C)C)C(=O)C1=C2OC(C)(C)C=C1 [DEHYDROHYPERFORIN]	8.6	–	–	–
COc1cc(C(=O)OC2=C(CC=C(C)C)C(=O)[C@@]3(C(=O)C(C)C)C(=O)[C@]2(CC=C(C)C)C[C@H](CC=C(C)C)[C@@]3(C)CCC=C(C)C)cc(OC)c1OC [HYPERFORINTRIMETHOXYBENZOATE]	> 27	–	–	–
CC(C)=CCC[C@]1(C)[C@@H](CC=C(C)C)C[C@@]2(CC=C(C)C)C(=O)[C@]1(C(=O)C(C)C)C(=O)C(CC=C(C)C)=C2OC(=O)c1cccnc1 [HYPERFORINNICOTINATE]	4.8	23.9	–	–
CC(C)=CCC[C@]1(C)[C@@H](CC=C(C)C)C[C@]2(CC=C(C)C)C(=O)C(CC=C(C)C)=C(O)[C@@]1(C(=O)C(C)C)C2=O [listing 1 of 2 here]	–	–	2.1	3.29
CC(=O)C1=C(O)C=C2Oc3c(C(C)=O)c(O)c(C)c(O)c3[C@@]2(C)C1=O [(+)-USNIC ACID]	15.3	–	–	–
CC(C)CCC[C@]1(C)[C@@H](CCC(C)C)C[C@@]2(CCC(C)C)C(=O)[C@]1(C(=O)C(C)C)C(=O)C(CCC(C)C)=C2O [OCTAHYDROHYPERFORIN]	2.7	2.12	–	–
CC(C)=CCC[C@]1(C)[C@@H](CC=C(C)C)C[C@]2(CC=C(C)C)C(=O)C(CC=C(C)C)=C(O)[C@@]1(C(=O)C(C)C)C2=O [listing 2 of 2 here]	1.5	2.21	–	–

Now from value to compound, other results behind:

IC50 (Plasmodium falciparum; [1]) [µM]	Structure (SMILES)	IC50 (L6; Rattus norvegicus, L6, 72 h) [µM]	IC50 (Plasmodium falciparum) [µM]	IC50 (L6; l6) [µM]
2	CC(C)=CCC[C@]1(C)[C@@H](CC=C(C)C)C[C@]2(CC=C(C)C)C(=O)[C@@]3(CC=C(C)C)O[C@@]2(O)[C@]1(C(=O)C(C)C)C3=O [HYPERFORINHEMIACETAL]	16.1	–	–
> 27	CC(C)=CCC[C@]1(C)[C@@H](CC=C(C)C)C[C@]2(CC=C(C)C)C(=O)C(C)(CC=C(C)C)C(=O)[C@@]1(C(=O)C(C)C)C2=O (stereo not given in full)	–	–	–
1.7	CC(C)=CCC[C@]1(C)[C@@H](CC=C(C)C)C[C@]23CC(C(C)(C)O)OC2=C(CC=C(C)C)C(=O)[C@@]1(C(=O)C(C)C)C3=O (stereo not given in full) [FUROHYPERFORIN]	16.1	–	–
3.8	CC(C)=C/C=C1/OC(=O)[C@@]2(CC=C(C)C)C[C@H](CC=C(C)C)[C@@](C)(CCC=C(C)C)[C@H](C(=O)C(C)C)C(=O)[C@@]12O	36	–	–
7.8	COC1=C(CC=C(C)C)C(=O)[C@@]2(C(=O)C(C)C)C(=O)[C@]1(CC=C(C)C)C[C@H](CC=C(C)C)[C@@]2(C)CCC=C(C)C	–	–	–
0.6	CC(C)=CCC[C@]1(C)[C@@H](CC=C(C)C)C[C@]2(CC=C(C)C)C(=O)[C@@](O)(CC=C(C)C)C(=O)[C@@]1(C(=O)C(C)C)C2=O	19.7	–	–
